Assay type: in vivo, rat
Settings: liver of rats which died between D9 and D10 after consuming the 11.8 ppm bait
Description: The acetonitrile solution containing difethialone is analysed by high-pressure liquid chromatography on a LUX® Cellulose-3 chiral column (Phenomenex, Le Pecq, France) (150×2 mm, particle size of 3 μm) as described in point A2) above.
The values, expressed as micrograms of laevorotatory enantiomer of said hetero-stereoisomer (“DFN-Hetero-laevo”) per gram of liver, are given in table 3 below.

O=c1sc2ccccc2c(O)c1C1CC(c2ccc(-c3ccc(Br)cc3)cc2)Cc2ccccc21 (stereo not shown) [Total difethialone, 3-(4′-bromobiphenyl-4-yl)-1-(4-hydroxythiocoumarin-3-yl)-1,2,3,4-tetrahydronaphthalene]
Hepatic content, Mean: 11.3 µg/g

From US10501434B2, “Configurational stereoisomer of difethialone, composition and rodenticidal bait comprising same, and process for controlling target rodent pests” (priority 2015, dated 2019)
